Experiments:
HSV-1 = experiment: Antiviral activity against HSV-1 (CPE inhibition / neutral red); type: cell-based, herpes simplex virus type 1; settings: HSV-1
Influenza B = experiment: microbe, parasite or virus in culture; type: cell-based; settings: Influenza B
uninfected cells [1] = tested on: uninfected cells
HSV-2 = experiment: Antiviral activity against HSV-2 (CPE inhibition / neutral red); type: cell-based, herpes simplex virus type 2; settings: HSV-2
[2] = tested on: Respiratory Syncitial Virus (RSV); experiment: Antiviral activity against RSV (CPE inhibition / neutral red); type: cell-based; settings: RSV
Rhinovirus (RV) = experiment: Antiviral activity against Rhinovirus (CPE inhibition / neutral red); type: cell-based; settings: Rhinovirus
HIVROJO = experiment: Anti-HIV activity against HIVROJO in PBMCs; type: cell-based; settings: HIVROJO, PBMCs
HIVTEKI = experiment: Anti-HIV activity against HIVTEKI in PBMCs; settings: HIVTEKI, PBMCs
uninfected cells [3] = tested on: uninfected cells; remark: listed apart in the source
Influenza A = experiment: microbe, parasite or virus in culture; type: cell-based
PBMCs = experiment: Cytotoxicity in PBMCs (anti-HIV tests); type: cell-based; settings: for HIVTEKI (PBMCs) CC50: HIVTEKI columns
uninfected cells [4] = tested on: uninfected cells; remark: listed apart in the source
Adenovirus = experiment: Antiviral activity against Adenovirus (CPE inhibition / neutral red); type: cell-based; settings: Adenovirus
uninfected cells [5] = tested on: uninfected cells; remark: listed apart in the source
Parainfluenza = experiment: Antiviral activity against Parainfluenza (CPE inhibition / neutral red); type: cell-based; settings: Parainfluenza
uninfected cells [6] = tested on: uninfected cells; remark: listed apart in the source
uninfected cells [7] = experiment: Cytotoxicity run with the Influenza A test; type: cell-based
Method: (§1) Methods For Assay Of Cytotoxicity
(§2) In the CPE inhibition test, two wells of uninfected cells treated with each concentration of test Compound are run in parallel with the infected, treated wells. At the time CPE is determined microscopically, the toxicity control cells are also examined microscopically for any changes in cell appearance compared to normal control cells run in the same plate. These changes may be enlargement, granularity, cells with ragged edges, a filmy appearance, rounding, detachment from the surface of the well, or other changes. These changes are given a designation of T (100% toxic), PVH (partially toxic-very heavy-80%), PH (partially toxic-heavy-60%), P (partially toxic-40%), PS (partially toxic-slight-20%), or 0 (no toxicity-0%), conforming to the degree of cytotoxicity seen.
(§3) In the neutral red dye uptake phase of the antiviral test described above, the two toxicity control wells also receive neutral red and the degree of color intensity is determined spectrophotometrically. A neutral red CC50 (NRCC50) is subsequently determined.
(§4) C. ^3H Thymidine Uptake Assay
(§5) Flat bottom 96 well plates are plated with 5X10E3 Vero-34 cells/well and 1X10E4 Hs68 or Wi-38 cells/well respectively and incubated overnight at 37° C. and 5% CO2/air. After incubation, the supernatant medium is removed and replaced with test Compound dilutions in 2% DMEM (150 ul). The cells are then incubated 48 hours in a 5% CO2 incubator at 37° C.
(§6) 50 μl/well of 10 uCi/ml solution of [3H]-methyl thymidine (specific activity of approx. 2Ci/mmol) is added to the culture medium and incubated overnight (18 hours) in a 5% CO2 incubator at 37° C.
(§7) Cells are then collected onto a fiberglass filter (Printed Filtermat A 1450-421 Wallac) with a Tomtec cell harvester. Suspended cells are collected directly onto filter while for adherent cells, the medium is first removed, then the cells washed with PBS and trypsinized for 2-3 minutes (50 μl trypsin/well) before collecting.
(§8) Filters are dried for 1 hour at 37-40° C. and then placed into bags (1450-microbeta #1450-432 Wallac) with 4.5 ml of Betascint and counts obtained with Microbeta 1450 Wallac (protocol 1).
(§9) The percent of cell proliferation is determined by comparison to the control (no test Compound) and thereby establishing 50% inhibitory concentration is established.

uninfected cells [8] = experiment: Cytotoxicity run with the Influenza B test; type: cell-based
Method: as §1, §2, §3, §4, §5, §6, §7, §8, §9

uninfected cells [9] = experiment: Cytotoxicity run with the Adenovirus test; settings: cytotoxicity, Adenovirus test

SMILES	HSV-1 IC50 (HSV-1) [µg/mL]	INFLUENZA B IC50 (Influenza B) [µg/mL]	HSV-1 CC50 (uninfected cells [1]) [µg/mL]	HSV-2 IC50 (HSV-2) [µg/mL]	RSV IC50 [2] [µg/mL]	RV IC50 (Rhinovirus (RV)) [µg/mL]	HIVROJO (PBMCs) IC50 (HIVROJO) [µg/mL]	HIVTEKI (PBMCs) IC50 (HIVTEKI) [µg/mL]	RSV CC50 (uninfected cells [3]) [µg/mL]	INFLUENZA A IC50 (Influenza A) [µg/mL]	HIVROJO (PBMCs) CC50 (PBMCs) [µg/mL]	HSV-2 CC50 (uninfected cells [4]) [µg/mL]	ADENOVIRUS IC50 (Adenovirus) [µg/mL]	PARAINFLUENZA CC50 (uninfected cells [5]) [µg/mL]	PARAINFLUENZA IC50 (Parainfluenza) [µg/mL]	RV CC50 (uninfected cells [6]) [µg/mL]	INFLUENZA A CC50 (uninfected cells [7]) [µg/mL]	INFLUENZA B CC50 (uninfected cells [8]) [µg/mL]	ADENOVIRUS CC50 (uninfected cells [9]) [µg/mL]	HIVTEKI (PBMCs) CC50 (PBMCs) [µg/mL]	also measured
CCCOc1ccccc1CNC(=O)c1ccc2cnccc2n1 [#26, N-(2-propoxybenzyl)-2-[1,6]naphthyridine-2-carboxamide]	0.36	3.2	3.2	0.19	4	< 0.01	4.1	0.3	3	5.6	6.0	1.9	4	2	4	4	5.6	5.6	–	–	–
COc1ccccc1CNC(=O)C1=Cc2ccncc2CC1 [#32, 7,8-dihydroisoquinolin-6-carboxylic acid 2′-methoxybenzylamide]	5.5	56	14	15	50	10	45	–	30	60	>64	29.0	> 100	20	–	25	67	–	80	>64	–
CC(C)Oc1ccccc1NC(=O)Nc1ccc2cnccc2n1 [#46, 1-(2-iso-propoxy-phenyl)-3-[1,6]naphthyridin-2-yl-urea;]	>100	> 32	>100	–	>30	1	3.2	4.3	30	>32	>100	–	> 30	30	> 30	> 30	19	> 22	> 30	>100	–
COc1ccccc1CNC(=O)c1nc2ccncc2s1 [#59, Thiazolo[5,4-c]pyridine-2-carboxylic acid-2-methoxybenzylamide]	–	–	–	–	–	–	–	–	–	–	–	–	–	–	–	–	–	–	–	–	HCMV IC50 (HCMV): ˜10 μg/ml
C[C@H](NC(=O)c1nc2ccncc2s1)c1ccccc1 [#62, Thiazolo[5,4-c]pyridine-2-carboxylic acid(1(S)-phenyl-ethyl)amide]	–	–	–	–	–	–	–	–	–	–	–	–	–	–	–	–	–	–	–	–	HCMV IC50 (HCMV): ˜1 μg/ml

Source: patent publication US6534520B2, “Antiviral compounds” (priority 1997, dated 2003)
